As usually defined, the CC50 is the concentration giving 50% cytotoxicity. A low value points to harm at low concentration. What is called % inhibition is how much of the control response was suppressed.

These results are taken from US20140296266A1, “THERAPEUTIC COMPOUNDS” (Gilead Sciences, Inc., priority 2013, published 2014).

Data set [1] has as its system HIV-IIIb. In words: Test A: Antiviral Assay in MT4 Cells. The conditions noted are these: MT-4 cells mixed with HIV-IIIb (m.o.i. 0.003), 5 days, CellTiter-Glo, calculated from the dose response curve; for inhibition at 2 µM: Human immunodeficiency virus 1, IIIB, MT4, 120 h, read-out: % inhibition at 2 μM (percent inhibition of virus-induced cell killing), 2 μM drug concentration. Format: cell-based, HIV-1. As for the experimental part:
(§1) For the antiviral assay, 40 μL of 1× test concentration of 3-fold serially diluted compound in culture medium with 10% FBS was added to each well of a 384-well plate (10 concentrations) in quadruplicate. MT-4 cells were next mixed with HIV-IIIb at an m.o.i of 0.003 for 1 hour, after which time 35 μL of virus/cell mixture (2000 cells) was immediately added to each well containing 40 μL of diluted compound. The plates were then incubated at 37° C. for 5 days. After 5 days of incubation, 25 μl of 2× concentrated CellTiter-Glo™ Reagent (catalog #G7571, Promega Biosciences, Inc., Madison, Wis.) was added to each well containing MT-4 cells. Cell lysis was carried out by incubating at room temperature for 10 min and then chemiluminescence was read.

A short description of data set [2]: Test B: Cytotoxicity Assay. Format: cell-based. The note with it: human, uninfected MT-4 cells, same protocol as Test A, CellTiter-Glo. As for the experimental part:
as §1
Compound cytotoxicity and the corresponding CC50 values was determined using the same protocol as described in the antiviral assay (Test A) except that uninfected cells were used.

Take `NC(=O)c1ccc(-c2cnc3[nH]ccc3c2)c([C@H](Cc2cc(F)cc(F)c2)NC(=O)Cn2nc(C(F)F)c3c2C(F)(F)CCC3(F)F)n1` [Compound 1B, (S)-6-(1-(2-(3-(difluoromethyl)-4,4,7,7-tetrafluoro-4,5,6,7-tetrahydro-1H-indazol-1-yl)acetamido)-2-(3,5-difluorophenyl)ethyl)-5-(1H-pyrrolo[2,3-b]pyridin-5-yl)picolinamide]: in data set [1], the inhibition at 2 µM was 77%. In data set [2], the CC50 at 5 days came to 8.57 µM.
As to `CC(C)(O)C#Cc1ccc(-c2cccc3c(=O)[nH]cnc23)c([C@H](Cc2cc(F)cc(F)c2)NC(=O)Cn2nc(C(F)(F)F)c3c2C(F)(F)[C@@H]2C[C@H]32)n1` [Compound 2, 2-((3bS,4aR)-5,5-difluoro-3-(trifluoromethyl)-3b,4,4a,5-tetrahydro-1H-cyclopropa[3,4]cyclopenta[1,2-c]pyrazol-1-yl)-N—((S)-2-(3,5-difluorophenyl)-1-(6-(3-hydroxy-3-methylbut-1-yn-1-yl)-3-(4-oxo-3,4-dihydroquinazolin-8-yl)pyridin-2-yl)ethyl)acetamide], in data set [1], the inhibition at 2 µM is 90%. This compound had a CC50 at 5 days in data set [2] of 14.3 µM.
On the same counts, the results for `CC(C)(O)C#Cc1ccc(-c2ccc3c(c2)C(=O)NC32CC2)c([C@H](Cc2cc(F)cc(F)c2)NC(=O)Cn2nc(C(F)(F)F)c3c2C(F)(F)[C@@H]2C[C@H]32)n1` [Compound 3D, 2-((3bS,4aR)-5,5-difluoro-3-(trifluoromethyl)-3b,4,4a,5-tetrahydro-1H-cyclopropa[3,4]cyclopenta[1,2-c]pyrazol-1-yl)-N—((S)-2-(3,5-difluorophenyl)-1-(6-(3-hydroxy-3-methylbut-1-yn-1-yl)-3-(3′-oxospiro[cyclopropane-1,1′-isoindolin]-5′-yl)pyridin-2-yl)ethyl)acetamide] are 82% and 4.15 µM.
Regarding `CC(C)(O)C#Cc1cnc([C@H](Cc2cc(F)cc(F)c2)NC(=O)Cn2nc(C(F)F)c3c2C(F)(F)CCC3(F)F)c(-c2ccc3c(c2)C(=O)NC3)c1` [Compound 4H, (S)-2-(3-(difluoromethyl)-4,4,7,7-tetrafluoro-4,5,6,7-tetrahydro-1H-indazol-1-yl)-N-(2-(3,5-difluorophenyl)-1-(5-(3-hydroxy-3-methylbut-1-ynyl)-3-(3-oxoisoindolin-5-yl)pyridin-2-yl)ethyl)acetamide], the inhibition at 2 µM in data set [1] is 74%. In data set [2], it took 22.8 µM to reach half-maximal cytotoxicity (CC50 at 5 days).
Turning to `NC(=O)c1cc(-c2ccc(-c3ccc(F)c(C(N)=O)c3)c([C@H](Cc3cc(F)cc(F)c3)NC(=O)Cn3nc(C(F)F)c4c3C(F)(F)CCC4(F)F)n2)ccc1F` [Compound 5G, (S)-5,5′-(6-(1-(2-(3-(difluoromethyl)-4,4,7,7-tetrafluoro-4,5,6,7-tetrahydro-1H-indazol-1-yl)acetamido)-2-(3,5-difluorophenyl)ethyl)pyridine-2,5-diyl)bis(2-fluorobenzamide)], the CC50 at 5 days in data set [2] was greater than 53.2 µM.
Regarding `O=C(Cn1nc(C(F)F)c2c1C(F)(F)CCC2(F)F)N[C@@H](Cc1cc(F)cc(F)c1)c1nc(-c2ccc3c(c2)C(=O)NC3)ccc1-c1ccc2c(c1)C(=O)NC2` [Compound 6, (S)—N-(1-(3,6-bis(3-oxoisoindolin-5-yl)pyridin-2-yl)-2-(3,5-difluorophenyl)ethyl)-2-(3-(difluoromethyl)-4,4,7,7-tetrafluoro-4,5,6,7-tetrahydro-1H-indazol-1-yl)acetamide], the inhibition at 2 µM in data set [1] was 73%. This compound also had a CC50 at 5 days in data set [2] greater than 53.2 µM.
On the same counts, the results for `O=C(Cn1nc(C(F)F)c2c1C(F)(F)CCC2(F)F)N[C@@H](Cc1cc(F)cc(F)c1)c1nc(-c2cnc3[nH]ccc3c2)ccc1-c1cnc2[nH]ccc2c1` [Compound 7, (S)—N-(1-(3,6-bis(1H-pyrrolo[2,3-b]pyridin-5-yl)pyridin-2-yl)-2-(3,5-difluorophenyl)ethyl)-2-(3-(difluoromethyl)-4,4,7,7-tetrafluoro-4,5,6,7-tetrahydro-1H-indazol-1-yl)acetamide] are 92% and 5.66 µM.
The matching figures for `COc1cc(-c2ccc(-c3ccc4c(c3)C(=O)NC4)c([C@H](Cc3cc(F)cc(F)c3)NC(=O)Cn3nc(C(F)F)c4c3C(F)(F)CCC4(F)F)n2)ccn1` [Compound 8C, (S)-2-(3-(difluoromethyl)-4,4,7,7-tetrafluoro-4,5,6,7-tetrahydro-1H-indazol-1-yl)-N-(2-(3,5-difluorophenyl)-1-(2′-methoxy-5-(3-oxoisoindolin-5-yl)-[2,4′-bipyridin]-6-yl)ethyl)acetamide]: 86% and 22 µM.
`CC(C)(O)C#Cc1ccc(-c2ccc3c(c2)C(=O)NC3)c([C@H](Cc2cc(F)cc(F)c2)NC(=O)Cn2nc(C(F)F)c3c2C(F)(F)CCC3(F)F)n1` [Compound 9B, (S)-2-(3-(difluoromethyl)-4,4,7,7-tetrafluoro-4,5,6,7-tetrahydro-1H-indazol-1-yl)-N-(2-(3,5-difluorophenyl)-1-(6-(3-hydroxy-3-methylbut-1-yn-1-yl)-3-(3-oxoisoindolin-5-yl)pyridin-2-yl)ethyl)acetamide]: the inhibition at 2 µM in data set [1] was 95%. Moreover, the CC50 at 5 days in data set [2] was found to be 14.6 µM.
The matching figures for `O=C(Cn1nc(C(F)F)c2c1C(F)(F)CCC2(F)F)N[C@@H](Cc1cc(F)cc(F)c1)c1ncc(-c2ccc3c(c2)C(=O)NC3)cc1-c1ccc2c(c1)C(=O)NC2` [Compound 10B, (S)—N-(1-(3,5-bis(3-oxoisoindolin-5-yl)pyridin-2-yl)-2-(3,5-difluorophenyl)ethyl)-2-(3-(difluoromethyl)-4,4,7,7-tetrafluoro-4,5,6,7-tetrahydro-1H-indazol-1-yl)acetamide]: 85% and greater than 53.2 µM.
Regarding `O=C(Cn1nc(C(F)F)c2c1C(F)(F)CCC2(F)F)N[C@@H](Cc1cc(F)cc(F)c1)c1ncc(-c2cnc3[nH]ccc3c2)cc1-c1cnc2[nH]ccc2c1` [Compound 11, (S)—N-(1-(3,5-di(1H-pyrrolo[2,3-b]pyridin-5-yl)pyridin-2-yl)-2-(3,5-difluorophenyl)ethyl)-2-(3-(difluoromethyl)-4,4,7,7-tetrafluoro-4,5,6,7-tetrahydro-1H-indazol-1-yl)acetamide], the inhibition at 2 µM in data set [1] was 66%. The CC50 at 5 days in data set [2] was greater than 53.2 µM.
On the same counts, the results for `O=C(Cn1nc(C(F)F)c2c1C(F)(F)CCC2(F)F)N[C@@H](Cc1cc(F)cc(F)c1)c1nc(-c2cc[nH]c(=O)c2)ccc1-c1ccc2c(c1)C(=O)NC2` [Compound 12, (S)-2-(3-(difluoromethyl)-4,4,7,7-tetrafluoro-4,5,6,7-tetrahydro-1H-indazol-1-yl)-N-(2-(3,5-difluorophenyl)-1-(2′-oxo-5-(3-oxoisoindolin-5-yl)-1′,2′-dihydro-[2,4′-bipyridin]-6-yl)ethyl)acetamide] are 58% and greater than 53.2 µM.
In the case of `O=C(Cn1nc(C(F)F)c2c1C(F)(F)CCC2(F)F)N[C@@H](Cc1cc(F)cc(F)c1)c1nc(-c2cc[nH]c(=O)c2)ccc1-c1cc[nH]c(=O)c1` [Compound 13, (S)-2-(3-(difluoromethyl)-4,4,7,7-tetrafluoro-4,5,6,7-tetrahydro-1H-indazol-1-yl)-N-(2-(3,5-difluorophenyl)-1-(2,2″-dioxo-1,1″,2,2″-tetrahydro-[4,2′:5′,4″-terpyridin]-6′-yl)ethyl)acetamide], the inhibition at 2 µM in data set [1] is 0%. In data set [2], this compound displayed a CC50 at 5 days greater than 53.2 µM.
On the same counts, the results for `CC(C)(O)C#Cc1ccc(-c2cccc3c2CNC3=O)c([C@H](Cc2cc(F)cc(F)c2)NC(=O)Cn2nc(C(F)(F)F)c3c2C(F)(F)[C@@H]2C[C@H]32)n1` [Compound 14E, 2-((3bS,4aR)-5,5-difluoro-3-(trifluoromethyl)-3b,4,4a,5-tetrahydro-1H-cyclopropa[3,4]cyclopenta[1,2-c]pyrazol-1-yl)-N—((S)-2-(3,5-difluorophenyl)-1-(6-(3-hydroxy-3-methylbut-1-yn-1-yl)-3-(1-oxoisoindolin-4-yl)pyridin-2-yl)ethyl)acetamide] are 89% and 6.82 µM.
`O=C(Cn1nc(C(F)F)c2c1C(F)(F)CCC2(F)F)N[C@@H](Cc1cc(F)cc(F)c1)c1nc(-c2c[nH]nn2)ccc1-c1cnc2[nH]ccc2c1` [Compound 16C]: in data set [1] (2 μM drug concentration), the “% inhibition at 2 μM (percent inhibition of virus-induced cell killing)” value is listed as 65%.
As for `CC(C)(O)C#Cc1ccc(-c2ccc(F)c(C(N)=O)c2)c([C@H](Cc2cc(F)cc(F)c2)NC(=O)Cn2nc(C(F)(F)F)c3c2C(F)(F)[C@@H]2C[C@H]32)n1` [Compound 18, 5-(2-((S)-1-(2-((3bS,4aR)-5,5-difluoro-3-(trifluoromethyl)-3b,4,4a,5-tetrahydro-1H-cyclopropa[3,4]cyclopenta[1,2-c]pyrazol-1-yl)acetamido)-2-(3,5-difluorophenyl)ethyl)-6-(3-hydroxy-3-methylbut-1-yn-1-yl)pyridin-3-yl)-2-fluorobenzamide], the CC50 at 5 days in data set [2] turned out to be 6.93 µM.
